# Laboratory results taken from patent US20260021061A1, “ARIADNE AND ANALOGS FOR THE TREATMENT OF NEUROLOGICAL AND NEUROMUSCLAR DISORDERS” (priority 2022, published 2026).
# Like-named read-outs stand apart in the source and are kept apart here.
# Legend:
# 5-HT2A [1] = target: T1, 5-HT2A (Homo sapiens, UniProt P28223); experiment: Radioligand displacement assay; type: binding
# Experimental: Therefore, an orthogonal assay measuring calcium flux was also performed for the 5-HT2 receptors (Klein et al., 2020).
# C57BL/6J mice = experiment: Head twitch response (HTR) in mice; type: in vivo, mouse; conditions: for HTR in presence of MDL100,907 (volinanserin), 5-HT2A antagonist: mouse, in vivo
# Experimental: All samples were prepared the same day testing was performed. Solids were weighed into small vials and dissolved in USP grade 0.85% saline with addition of 2 molar equivalents of glacial acetic acid. Sonication and gentle heating were applied until complete dissolution. The compounds were subsequently filtered through 0.45 μm filters into a new glass vial. All compounds were administered at a 1 mg/kg subcutaneous dose at a volume of 10 mL/kg of body weight. Volinanserin hydrochloride salt (MDL 100907) was purchased from Toronto Research Chemicals.
# All experimental procedures involving animals were approved by an Institutional Animal Care and Use Committee (IACUC) and adhered to principles described in the National Institutes of Health Guide for the Care and Use of Laboratory Animals. The studies were conducted at AAALAC accredited facilities. Animals received regular veterinary care (weekly by institutional veterinarians) including daily health monitoring (by experimenters) of the animals (observing home cage behaviors, nesting, and body weight). All procedures were designed to minimize any stress/distress. Healthy adult male mice C57BL/6J (8-12 weeks, 26-33 g) were purchased from the Jackson Laboratory (Bar Harbor, ME) and housed 5 mice per cage with food and water available ad libitum. Mice were maintained on a 12-h light/dark cycle (lights on 7:00-19:00) and all testing was done in the light cycle. Temperature was kept constant at 22±2° C., and relative humidity was maintained at 50±5%
# The head-twitch response evaluation was performed by a trained observer who was blinded to both drug and dose. Mice were moved to the testing room 30 min before the experiment to allow for acclimation. The body weight of each mouse was recorded. Mice were administered either a 1, 3, 10, or 30 mg/kg s.c. dose of compound solution (volume of injection 260-330 μL based on body weight). […] The total number of head-twitches over the 15 minute period were recorded. Five mice were used per dose.
# DOI was tested at the doses of 0.3, 1, 3, and 10 mg/kg (s.c., 5 mice per dose) and testing began immediately after administration of the compound. Ariadne was tested at the doses of 1, 3, 10, and 30 mg/kg (s.c., 5 mice per dose) and there was a 10 min interval between treatment and testing.
# 5-HT2A [2] = target: T1, 5-HT2A; experiment: G protein (Gq) dissociation BRET assay; type: cell-based; design: host or cells: HEK293T (ATCC CRL-11268)
# 5-HT4 receptor = 5-HT4 receptor (Homo sapiens, UniProt Q13639); experiment: 5-HTome G protein activation BRET assay; conditions: 5-HTome screen
# Experimental: (§3) All BRET assays were conducted using BRET2 in HEK293T cells (ATCC CRL-11268; mycoplasma-free), which were subcultured in high-glucose DMEM (VWR) supplemented with 10% FBS (Life Technologies).
# Constructs in G protein-dissociation BRET assays were derived from the codon-optimized Tango pcDNA3.1 library (Addgene) with V2tail/TEV/tTA encoding regions deleted to yield “de-Tango” constructs. […] All Gα-Rluc8, Beta, and GFP2-γ constructs were derived from the TRUPATH pcDNA5/FRT/TO library (Addgene). […]
# On the day of the assay, plates were decanted and 20 uL of drug buffer per well (1×HBSS, 20 mM HEPES, pH 7.4) was added using a Multidrop (ThermoFisher Scientific), and plates were allowed to equilibrate at 37° C. in a humidified incubator before receiving drug stimulation. […] Before reading, addition of coelenterazine 400a (5 uM final concentration; Nanolight Technology) was performed by the [sequence]. Immediately after, plates were read at 400 nm Rluc and fluorescent GFP2 emission at 510 nm for BRET2 at 0.8 second per well using a PheraStarFSX (BMB Lab Tech).
# The BRET ratios of 510/400 luminescence were calculated per well and were plotted as a function of drug concentration using Graphpad Prism 5 or 9 (Graphpad Software Inc., San Diego, CA). […]
# 5-HT6 receptor = 5-HT6 receptor (Homo sapiens, UniProt P50406); experiment: 5-HTome G protein activation BRET assay; conditions: for agonist activity: 5-HTome screen
# Experimental: as §3
# (§4) Constructs in G protein-dissociation BRET assays were derived from the codon-optimized Tango pcDNA3.1 library (Addgene) with V2tail/TEV/tTA encoding regions deleted to yield “de-Tango” constructs. […] All Gα-Rluc8, Beta, and GFP2-γ constructs were derived from the TRUPATH pcDNA5/FRT/TO library (Addgene).
# (§5) Approximately 48 hours before assays, cells were transfected using a reverse transfection method and plated in 1% dFBS at an approximate density of 15,000 cells per well into poly-L-lysine-coated 384-well white assay plates (Grenier Bio-One). For G protein-dissociation assays, cells were transfected in a 1:1:1:1 ratio of receptor: Gα-Rluc8: Beta: GFP2-γ constructs. […] All transfections were prepared in Opti-MEM (Invitrogen) and used a 3:1 ratio of TransIT-2020 (Mirus) uL:ug total DNA.
# (§6) On the day of the assay, plates were decanted and 20 uL of drug buffer per well (1×HBSS, 20 mM HEPES, pH 7.4) was added using a Multidrop (ThermoFisher Scientific), and plates were allowed to equilibrate at 37° C. in a humidified incubator before receiving drug stimulation. Drug dilutions of all compounds were performed in McCorvy buffer (1×HBSS, 20 mM HEPES, pH 7.4, supplemented with 0.3% BSA fatty acid free (GoldBio), and 0.03% ascorbic acid). […] Before reading, addition of coelenterazine 400a (5 uM final concentration; Nanolight Technology) was performed by the [sequence]. Immediately after, plates were read at 400 nm Rluc and fluorescent GFP2 emission at 510 nm for BRET2 at 0.8 second per well using a PheraStarFSX (BMB Lab Tech).
# (§7) The BRET ratios of 510/400 luminescence were calculated per well and were plotted as a function of drug concentration using Graphpad Prism 5 or 9 (Graphpad Software Inc., San Diego, CA). Data were normalized to % positive control stimulation and analyzed using nonlinear regression “log(agonist) vs. response” to yield Emax and EC50 parameter estimates.
# 5-HT7a receptor = 5-HT7a receptor (Homo sapiens, UniProt P34969); experiment: 5-HTome G protein activation BRET assay; conditions: for agonist activity: 5-HTome screen
# Experimental: as §3, §4, §5, §6, §7
# [3] = Pharmacokinetic assessment, plasma and brain; type: in vivo, male C57BL/6 mice; conditions: for Mean brain Concentration (ng/g): LLOQ 2.06 ng/mL for brain; for AUC(0-t): read-out: AUClast (hr*ng/mL), plasma
# Experimental: PK assessments were performed at Sai Life (Telangana, India) according to the following general procedure. A total twenty-seven male C57BL/6 mice were used in this study with 3 mice per time point. Animals were administered subcutaneously at 10 mg/kg dose of test article. The formulation vehicle used was 0.9% normal saline. Blood samples (approximately 60 μL) were collected under light isoflurane anesthesia (Surgivet®) from retro orbital plexus from a set of three mice at 0.08, 0.25, 0.5, 1, 2, 4, 8, 24 and 48 hr. Immediately after blood collection, plasma was harvested by centrifugation at 4000 rpm, 10 min at […] and samples were stored at −70±10° C. until bioanalysis. Following blood collection, immediately animals were sacrificed followed by cutting abdominal vena-cava and whole body was perfused from heart using 10 mL of normal saline. Brain samples were collected from set of three mice at 0.08, 0.25, 0.5, 1, 2, 4, 8, 24 and 48 hr. After isolation, brain samples were rinsed three times in ice cold normal saline (for 5-10 seconds/rinse using ˜5-10 mL normal saline in disposable petri dish for each rinse) and dried on blotting paper. Brain samples were homogenized using ice-cold phosphate buffer saline (pH−7.4). Total homogenate volume was three times the tissue weight. All homogenates were stored below −70±10° C. until bioanalysis. All samples were processed for analysis by protein precipitation method and analyzed with fit-for-purpose LC-MS/MS method (LLOQ=5.16 ng/mL for plasma and 2.06 ng/mL for brain).
# 5-HT2A [4] = target: T1, 5-HT2A; experiment: IP1 agonism (IP1 formation assay), Cerep, Eurofins; type: cell-based; design: purchased Cerep, Eurofins (contract assay); conditions: duplicate averages only
# Excerpt: (§1) FIGS. 8A-B Comparison of 5-HT2A (a) and 5-HT2B (b) receptor in IP1 formation assay for selected compounds, performed at Cerep, Eurofins.
# (§2) IP1 agonism summary for selected compounds (duplicate averages only), performed at Cerep, Eurofins.
# 5-HT2B = 5-HT2B (Homo sapiens, UniProt P41595); experiment: IP1 agonism (IP1 formation assay), Cerep, Eurofins; type: cell-based; design: purchased Cerep, Eurofins (contract assay); conditions: duplicate averages only
# Excerpt: as §1, §2
# [5] = 5-HTome screen, read-out: Emax, agonist activity
# [6] = EC50 (EC50/Gq), Gq dissociation, Gq dissociation BRET
# [7] = EC50, agonist activity, 5-HTome screen
# [8] = SC 10 mg/kg, 24 hr, LLOQ 5.16 ng/mL
# [9] = SC 10 mg/kg, 48 hr, LLOQ 5.16 ng/mL
# [10] = male, C57BL/6, mouse, brain and plasma, SC 10 mg/kg, read-out: Brain/Plasma ratio
# [11] = male, C57BL/6, mouse, brain, SC 10 mg/kg, read-out: Mean brain Concentration
# [12] = male, C57BL/6, mouse, brain, SC 10 mg/kg, 8 hr, read-out: Mean brain Concentration
# [13] = male, C57BL/6, mouse, plasma, SC 10 mg/kg, read-out: Mean plasma Concentration
# [14] = male, C57BL/6, mouse, SC 10 mg/kg, brain, read-out: Cmax (ng/g), brain
# [15] = male, C57BL/6, mouse, SC 10 mg/kg, brain, read-out: T1/2 (hr), brain (converted)
# [16] = male, C57BL/6, mouse, SC 10 mg/kg, brain, read-out: Tmax (hr), brain
# [17] = male, C57BL/6, mouse, SC 10 mg/kg, plasma
# [18] = male, C57BL/6, mouse, SC 10 mg/kg, plasma, read-out: Cmax (ng/mL), plasma
# [19] = male, C57BL/6, mouse, SC 10 mg/kg, plasma, read-out: T1/2 (hr), plasma (converted)
# [20] = male, C57BL/6, mouse, SC 10 mg/kg, plasma, read-out: Tmax (hr), plasma
# [21] = EC50 (5-HT2A) (M), Table 7, IP1 agonism
# [22] = EC50 (5-HT2B) (M), Table 7, IP1 agonism
# 5-HT2B, sequence (P41595 whole entry): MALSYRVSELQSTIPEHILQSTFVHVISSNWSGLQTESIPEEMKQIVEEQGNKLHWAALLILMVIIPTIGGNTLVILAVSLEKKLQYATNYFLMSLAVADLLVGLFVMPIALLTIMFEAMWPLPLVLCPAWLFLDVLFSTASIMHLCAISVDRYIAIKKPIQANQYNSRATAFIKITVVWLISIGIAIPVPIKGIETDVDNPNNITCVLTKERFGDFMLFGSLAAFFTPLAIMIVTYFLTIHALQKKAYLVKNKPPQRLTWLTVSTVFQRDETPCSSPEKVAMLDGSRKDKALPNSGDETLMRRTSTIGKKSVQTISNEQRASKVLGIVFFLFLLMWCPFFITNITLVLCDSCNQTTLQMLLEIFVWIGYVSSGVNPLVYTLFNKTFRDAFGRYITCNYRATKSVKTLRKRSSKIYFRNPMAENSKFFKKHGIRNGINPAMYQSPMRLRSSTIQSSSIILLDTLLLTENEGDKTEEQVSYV
# 5-HT6 receptor, sequence (P50406 whole entry): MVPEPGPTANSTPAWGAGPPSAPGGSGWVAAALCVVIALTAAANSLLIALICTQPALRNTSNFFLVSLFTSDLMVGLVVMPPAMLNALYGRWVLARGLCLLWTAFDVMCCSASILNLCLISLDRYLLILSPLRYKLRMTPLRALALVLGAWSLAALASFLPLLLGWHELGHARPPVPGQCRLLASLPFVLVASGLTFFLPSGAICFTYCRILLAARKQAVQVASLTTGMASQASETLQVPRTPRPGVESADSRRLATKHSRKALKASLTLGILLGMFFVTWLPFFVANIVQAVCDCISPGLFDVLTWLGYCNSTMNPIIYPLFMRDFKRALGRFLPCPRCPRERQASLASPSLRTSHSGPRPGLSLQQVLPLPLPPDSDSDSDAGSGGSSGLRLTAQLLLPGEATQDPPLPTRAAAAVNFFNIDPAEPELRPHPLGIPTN
# 5-HT7a receptor, sequence (P34969 1-445 isoform P34969-2): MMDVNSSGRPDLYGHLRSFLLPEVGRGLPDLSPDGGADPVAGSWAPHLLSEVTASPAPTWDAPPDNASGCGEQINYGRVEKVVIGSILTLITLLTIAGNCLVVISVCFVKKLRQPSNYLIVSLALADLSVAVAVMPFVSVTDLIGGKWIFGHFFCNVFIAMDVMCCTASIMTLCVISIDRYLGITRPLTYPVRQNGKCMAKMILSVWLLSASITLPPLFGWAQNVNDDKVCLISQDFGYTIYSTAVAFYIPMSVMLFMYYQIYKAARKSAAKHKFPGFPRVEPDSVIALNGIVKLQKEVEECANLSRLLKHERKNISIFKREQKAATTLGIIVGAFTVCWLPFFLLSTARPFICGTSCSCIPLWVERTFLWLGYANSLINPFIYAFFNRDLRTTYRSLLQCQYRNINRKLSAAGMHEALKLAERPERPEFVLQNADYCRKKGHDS
# T1 sequence (P28223 whole entry): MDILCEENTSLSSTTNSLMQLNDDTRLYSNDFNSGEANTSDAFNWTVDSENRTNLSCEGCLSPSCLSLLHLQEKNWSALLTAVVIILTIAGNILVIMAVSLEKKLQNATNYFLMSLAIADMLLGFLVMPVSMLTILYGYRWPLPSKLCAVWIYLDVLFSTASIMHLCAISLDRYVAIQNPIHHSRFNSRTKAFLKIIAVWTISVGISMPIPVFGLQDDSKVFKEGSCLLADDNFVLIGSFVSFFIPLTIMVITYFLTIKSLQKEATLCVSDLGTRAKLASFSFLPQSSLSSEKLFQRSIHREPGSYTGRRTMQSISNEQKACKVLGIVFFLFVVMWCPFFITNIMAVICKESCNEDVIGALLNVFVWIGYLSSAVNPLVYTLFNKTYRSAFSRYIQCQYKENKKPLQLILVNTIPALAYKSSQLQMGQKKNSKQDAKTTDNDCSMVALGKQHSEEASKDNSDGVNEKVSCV
# 5-HT4 receptor, sequence (Q13639 whole entry): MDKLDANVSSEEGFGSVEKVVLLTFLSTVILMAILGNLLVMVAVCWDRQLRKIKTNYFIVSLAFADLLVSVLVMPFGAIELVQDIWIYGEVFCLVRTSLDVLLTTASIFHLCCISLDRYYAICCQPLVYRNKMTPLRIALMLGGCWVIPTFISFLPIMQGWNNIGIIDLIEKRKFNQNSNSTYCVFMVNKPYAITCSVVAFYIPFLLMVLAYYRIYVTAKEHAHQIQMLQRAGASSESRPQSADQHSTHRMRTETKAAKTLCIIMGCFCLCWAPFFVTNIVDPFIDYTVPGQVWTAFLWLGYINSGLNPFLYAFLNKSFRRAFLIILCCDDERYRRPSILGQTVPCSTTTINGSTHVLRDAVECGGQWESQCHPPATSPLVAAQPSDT
compound,measurement,setting,value
CC[C@@H](N)Cc1cc(OC)c(C)cc1OC [(R)-Ariadne],Ki,5-HT2A [1],53 nM
same,"HTR in presence of MDL100,907 (volinanserin), 5-HT2A antagonist",C57BL/6J mice,completely inhibited
same,dose of maximum (peak) HTR,C57BL/6J mice; s.c.,10 mg/kg
same,Emax,5-HT2A [2]; [5],> 70%
same,EC50,5-HT2A [2]; [6],149 nM
same,EC50,5-HT2A [2]; [7],< 1000 nM
same,Emax,"5-HT2A [2]; Gq dissociation BRET, normalized to 5-HT, read-out: Emax (Emax/Gq) relative to 5-HT",75%
same,agonist activity,5-HT4 receptor,Little to no agonist activity
same,agonist activity,5-HT6 receptor,Little to no agonist activity
same,agonist activity,5-HT7a receptor,Little to no agonist activity
"CCC(N)Cc1cc(OC)c(C)cc1OC (racemic) [Compound 32, 1-(2,5-dimethoxy-4-methylphenyl)butan-2-amine]",Ki,5-HT2A [1],120 nM
same,decrease in HTR count per 15 min compared to racemic DOPR,C57BL/6J mice; s.c.,> 3 fold
same,dose of maximum (peak) HTR,C57BL/6J mice; s.c.,10 mg/kg
same,Mean plasma Concentration (ng/mL),"[3]; SC 10 mg/kg, 8 hr, LLOQ 5.16 ng/mL",BLQ
same,Mean brain Concentration (ng/g),"[3]; SC 10 mg/kg, 24 hr",BLQ
same,Mean plasma Concentration (ng/mL),[3]; [8],BLQ
same,Mean brain Concentration (ng/g),"[3]; SC 10 mg/kg, 48 hr",BLQ
same,Mean plasma Concentration (ng/mL),[3]; [9],BLQ
same,Kp at 0.083 h,[3]; [10],2.43
same,Kp at 0.25 h,[3]; [10],5.93
same,Kp at 0.5 h,[3]; [10],8.47
same,Kp at 1 h,[3]; [10],10.2
same,Kp at 2 h,[3]; [10],9.93
same,Kp at 4 h,[3]; [10],9.01
same,concentration at 0.083 hr,[3]; [11],1630 ng/g
same,concentration at 0.25 hr,[3]; [11],4760 ng/g
same,concentration at 0.5 hr,[3]; [11],5610 ng/g
same,concentration at 1 hr,[3]; [11],5240 ng/g
same,concentration at 2 hr,[3]; [11],1710 ng/g
same,concentration at 4 hr,[3]; [11],368 ng/g
same,concentration at 8 hr,[3]; [12],16.2 ng/g
same,concentration at 0.083 hr,[3]; [13],672 ng/mL
same,concentration at 0.25 hr,[3]; [13],802 ng/mL
same,concentration at 0.5 hr,[3]; [13],662 ng/mL
same,concentration at 1 hr,[3]; [13],512 ng/mL
same,concentration at 2 hr,[3]; [13],172 ng/mL
same,concentration at 4 hr,[3]; [13],40.9 ng/mL
same,Cmax,[3]; [14],5610 ng/g
same,half-life,[3]; [15],0.89 h
same,Tmax,[3]; [16],0.5 h
same,AUC(0-t),[3]; [17],1180 ng·h/mL
same,Cmax,[3]; [18],802 ng/mL
same,half-life,[3]; [19],0.84 h
same,Tmax,[3]; [20],0.25 h
same,brain penetration,"[3]; mouse, in vivo",high brain penetration
same,Emax,5-HT2A [2]; [5],> 70%
same,EC50,5-HT2A [2]; [6],185 nM
same,EC50,5-HT2A [2]; [7],< 1000 nM
same,signaling potency and efficacy in comparison to DOM,"5-HT2A [2]; Gq, G11 and β-arrestin2 pathways coupled to 5-HT2A",lower signaling potency and efficacy
same,agonist activity,5-HT4 receptor,Little to no agonist activity
same,EC50,5-HT6 receptor,> 10000 nM
same,agonist activity,5-HT6 receptor,Little to no agonist activity
same,EC50,5-HT7a receptor,> 10000 nM
same,agonist activity,5-HT7a receptor,Little to no agonist activity
same,EC50,"5-HT2A [4]; 5-HT2a (IP1 agonism), Table 2",1.3e-06 M
same,EC50,5-HT2A [4]; [21],1.8e-06 M
same,EC50,"5-HT2B; 5-HT2b (IP1 agonism), Table 2",> 3.2e-05 M
same,EC50,5-HT2B; [22],1.7e-06 M
"CCC(N)Cc1cc(OC)c(C(F)(F)F)cc1OC (racemic) [Compound 29, 1-(2,5-dimethoxy-4-(trifluoromethyl)phenyl)butan-2-amine]","HTR in presence of MDL100,907 (volinanserin), 5-HT2A antagonist",C57BL/6J mice,completely inhibited
same,Mean brain Concentration (ng/g),"[3]; SC 10 mg/kg, 24 hr",BLQ
same,Mean plasma Concentration (ng/mL),[3]; [8],BLQ
same,Mean brain Concentration (ng/g),"[3]; SC 10 mg/kg, 48 hr",BLQ
same,Mean plasma Concentration (ng/mL),[3]; [9],BLQ
same,Kp at 0.083 h,[3]; [10],4.66
same,Kp at 0.25 h,[3]; [10],8.91
same,Kp at 0.5 h,[3]; [10],8.93
same,Kp at 1 h,[3]; [10],18.1
same,Kp at 2 h,[3]; [10],18.2
same,Kp at 4 h,[3]; [10],15.2
same,Kp at 8 h,"[3]; male, C57BL/6, mouse, brain and plasma, SC 10 mg/kg, 8 hr, read-out: Brain/Plasma ratio",12.7
same,concentration at 0.083 hr,[3]; [11],2010 ng/g
same,concentration at 0.25 hr,[3]; [11],4160 ng/g
same,concentration at 0.5 hr,[3]; [11],3770 ng/g
same,concentration at 1 hr,[3]; [11],3900 ng/g
same,concentration at 2 hr,[3]; [11],1740 ng/g
same,concentration at 4 hr,[3]; [11],787 ng/g
same,concentration at 8 hr,[3]; [12],170 ng/g
same,concentration at 0.083 hr,[3]; [13],431 ng/mL
same,concentration at 0.25 hr,[3]; [13],467 ng/mL
same,concentration at 0.5 hr,[3]; [13],422 ng/mL
same,concentration at 1 hr,[3]; [13],216 ng/mL
same,concentration at 2 hr,[3]; [13],95.5 ng/mL
same,concentration at 4 hr,[3]; [13],51.9 ng/mL
same,concentration at 8 hr,"[3]; male, C57BL/6, mouse, plasma, SC 10 mg/kg, 8 hr, LLOQ 5.16 ng/mL, read-out: Mean plasma Concentration",13.4 ng/mL
same,Cmax,[3]; [14],4160 ng/g
same,half-life,[3]; [15],1.79 h
same,Tmax,[3]; [16],0.25 h
same,AUC(0-t),[3]; [17],798 ng·h/mL
same,Cmax,[3]; [18],467 ng/mL
same,half-life,[3]; [19],2.11 h
same,Tmax,[3]; [20],0.25 h
same,selectivity for 5-HT2A over 5-HT2B,5-HT2A [2]; by Gq dissociation signaling potency,8 fold
same,EC50,"5-HT2A [4]; 5-HT2a (IP1 agonism), Table 2",5e-08 M
same,EC50,5-HT2A [4]; [21],6.3e-08 M
same,EC50,"5-HT2B; 5-HT2b (IP1 agonism), Table 2",6.3e-07 M
same,EC50,5-HT2B; [22],4e-07 M
